Experimental findings from ChEMBL document CHEMBL1201862, “PubChem BioAssay data set” (2004) are described below.

Structures are written as SMILES. Calls of active or inactive are those of the source.

Assay [1] concerns HEK293. Nature of the assay: EBV LMP1 TES2 canonical NF-kB signalling blockers – cell-based, HEK293, luciferase, cherry-pick, dose response (AID 588343). The assay is classed as functional. The following applies: Homo sapiens.
Assay [2] addresses T1, Endoribonuclease toxin MazF (Escherichia coli K-12, UniProt P0AE70).
T1 sequence (P0AE70 whole entry): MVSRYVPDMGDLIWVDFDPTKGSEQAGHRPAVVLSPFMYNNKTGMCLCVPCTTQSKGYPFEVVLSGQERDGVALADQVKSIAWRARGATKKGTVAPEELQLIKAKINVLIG
Put plainly: activation of MazEF endoribonuclease cleavage – biochemical, fluorescence, single-stranded RNA substrate, uHTS hits, dose response (AID 588481). The assay is classed as functional.

For assay [3], the target named is T1, Endoribonuclease toxin MazF. Nature of the assay: substrate-only fluorescence increase artefacts – biochemical, single-stranded RNase substrate, counter-screen for MazEF activator project, dose response (AID 588502). The assay is classed as functional.
The target of another assay is Trypsin (Sus scrofa, UniProt P00761). Nature of the assay: trypsin protease activity blockade – biochemical, quenched peptide fluorescence, cherry-pick, selectivity assay for Rce1 protease inhibitor project, dose response (AID 488789).
Sequence of Trypsin (P00761 whole entry): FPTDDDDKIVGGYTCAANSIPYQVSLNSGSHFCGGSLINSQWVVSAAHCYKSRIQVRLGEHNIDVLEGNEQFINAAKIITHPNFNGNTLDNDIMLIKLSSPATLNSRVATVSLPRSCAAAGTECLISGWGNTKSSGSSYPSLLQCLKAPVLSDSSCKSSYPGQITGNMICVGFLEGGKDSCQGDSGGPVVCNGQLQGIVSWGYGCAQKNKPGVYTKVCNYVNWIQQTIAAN
The next assay has as its target T2, CAAX prenyl protease 2 (Homo sapiens, UniProt Q9Y256).
T2 sequence (Q9Y256 whole entry): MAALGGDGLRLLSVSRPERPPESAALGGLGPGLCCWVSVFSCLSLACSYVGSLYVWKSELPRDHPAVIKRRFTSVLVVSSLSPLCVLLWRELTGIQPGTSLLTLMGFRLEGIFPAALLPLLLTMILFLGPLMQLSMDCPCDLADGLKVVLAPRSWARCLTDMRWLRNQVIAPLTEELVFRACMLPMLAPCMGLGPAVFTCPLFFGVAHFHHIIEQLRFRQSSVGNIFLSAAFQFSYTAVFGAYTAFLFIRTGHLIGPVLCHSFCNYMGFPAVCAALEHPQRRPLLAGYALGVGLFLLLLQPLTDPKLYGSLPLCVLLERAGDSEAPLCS
Nature of the assay: inhibition of Ras-converting CAAX protease Rce1 – biochemical, yeast membranes, quenched-peptide fluorescence, cherry-pick, dose response (AID 588849).

Assay [4] can be described thus: THP-1 cell cytotoxicity, dose response, cytotoxicity control for non-replicating M. tuberculosis project (AID 489025). The assay is classed as functional.
A short description of assay [5]: Vero E6 cell cytotoxicity, dose response, cytotoxicity control for non-replicating M. tuberculosis project, secondary assay (AID 492998). The assay is classed as functional, VeroE6. The following applies: Vero C1008.
Another assay is described as follows: cells. The assay is classed as functional.
For assay [6], the system named is HEK293. Nature of the assay: inhibition of NOD1-driven NF-kB reporter – cell-based, luminescence, uHTS, primary screen (AID 1578). The assay is classed as functional. The following applies: Homo sapiens.
In assay [7] the test system is HEK293. Put plainly: cells. The assay is classed as functional, cell-based. The following applies: Homo sapiens.
For assay [8], the system named is HEK293. Nature of the assay: cells. The assay is classed as functional, cell-based. The following applies: Homo sapiens. The source holds these as a separate data set.
Assay [9] has as its system HEK293. Put plainly: NOD2 signaling inhibitors in MDP-stimulated cells, cell-based, uHTS, luminescence (AID 2001). The assay is classed as functional. The settings on record: Homo sapiens.
Assay [10] has as its target 26S proteasome non-ATPase regulatory subunit 14 (Homo sapiens, UniProt O00487). Put plainly: inhibition of proteasome subunit RPN11 – biochemical, fluorescence polarization, uHTS hits, confirmation (AID 602368). The assay is classed as functional.
Assay [11] addresses 72 kDa type IV collagenase (Homo sapiens, UniProt P08253). Put plainly: Dose Response validation of uHTS RPN11 inhibitor hits using a MMP-2 Fluorescence assay. The assay is classed as functional.
The next assay concerns the target Prothrombin (Bos taurus, UniProt P00735). Put plainly: thrombin protease inhibitors – biochemical, fluorescence polarization, uHTS hits, dose response (AID 602369). The assay is classed as functional.

Sequence of 26S proteasome non-ATPase regulatory subunit 14 (O00487 whole entry): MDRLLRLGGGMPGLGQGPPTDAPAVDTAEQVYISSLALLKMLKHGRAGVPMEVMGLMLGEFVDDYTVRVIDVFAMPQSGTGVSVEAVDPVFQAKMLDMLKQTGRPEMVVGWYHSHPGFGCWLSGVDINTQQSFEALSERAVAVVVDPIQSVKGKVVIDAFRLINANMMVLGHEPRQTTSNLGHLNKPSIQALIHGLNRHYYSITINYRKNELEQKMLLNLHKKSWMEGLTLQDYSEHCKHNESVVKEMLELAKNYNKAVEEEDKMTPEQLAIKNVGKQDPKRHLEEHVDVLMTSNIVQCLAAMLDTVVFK
Sequence of 72 kDa type IV collagenase (P08253 whole entry): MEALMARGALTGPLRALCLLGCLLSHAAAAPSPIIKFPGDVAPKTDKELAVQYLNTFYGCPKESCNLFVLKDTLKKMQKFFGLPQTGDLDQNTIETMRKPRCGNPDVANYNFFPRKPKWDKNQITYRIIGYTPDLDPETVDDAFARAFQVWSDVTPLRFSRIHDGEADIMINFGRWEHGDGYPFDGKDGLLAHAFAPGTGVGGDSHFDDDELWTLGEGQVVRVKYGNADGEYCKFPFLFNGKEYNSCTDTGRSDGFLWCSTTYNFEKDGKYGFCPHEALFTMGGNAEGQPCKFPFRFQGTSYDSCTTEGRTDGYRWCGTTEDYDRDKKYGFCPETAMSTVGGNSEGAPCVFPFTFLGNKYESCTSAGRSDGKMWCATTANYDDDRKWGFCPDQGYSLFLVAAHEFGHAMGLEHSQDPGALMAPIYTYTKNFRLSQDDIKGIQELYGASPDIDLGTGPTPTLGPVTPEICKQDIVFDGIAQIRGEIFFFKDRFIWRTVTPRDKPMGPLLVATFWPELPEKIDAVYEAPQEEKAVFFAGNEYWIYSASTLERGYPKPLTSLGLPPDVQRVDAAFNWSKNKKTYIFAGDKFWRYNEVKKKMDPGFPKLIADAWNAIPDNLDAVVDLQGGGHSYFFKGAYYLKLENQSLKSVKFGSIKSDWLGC

In the case of `COc1ccc2nc(-c3ccc(C)cc3)cc(O)c2c1`, in the assay on HEK293 [1], the AC50 is 2.68 µM (active).
Regarding `Cc1ccc2c(n1)sc1c(-c3ccccc3)c(C#N)c(N)nc12`, the EC50 in assay [2] and in [3] was > 99 µM (inactive) each time.
With `Cc1nn(-c2ccccc2)c2nc(N)c(C(N)=O)cc12`, the AC50 is 37.9 µM (active) on Trypsin and 21.3 µM (active) on CAAX prenyl protease 2.
In the case of `Nc1c(C(=O)Nc2ccccc2)sc2nc3c(c(-c4ccco4)c12)CCC3`, the EC50 in assay [2] is 11.3 µM (active); in assay [3] it was > 99 µM (inactive).
`Cc1cc(Cl)ccc1OCC(=O)NNC(=O)c1cnccn1`: the figures for the CC50 in [4] and in assay [5] were > 40 µM (active) and 13.7 µM (active), respectively. Further, the IC50 in the assay “cells” was 5.5 µM (active).
Regarding `O=C(c1ccc(Cl)cc1)C1CCCN(Cc2ccc3ncccc3c2)C1` (configuration not stated), in the assay with HEK293 [6], the EC50 is 4.42 µM (active). Moreover, the values for the IC50 with HEK293 [7], with HEK293 [8] and in the assay on HEK293 [9] were 3.92 µM (active), 15.5 µM (active) and 5.78 µM (active), respectively.
`O=C(CCN1C(=O)/C(=C\c2cccs2)SC1=S)Nc1ccccn1`: the values for the IC50 (in assay [10]; in assay [11]; at Prothrombin) were 9.93 µM (active), > 100 µM (inactive) and 15.1 µM (active), respectively.
